Measured values taken from patent US20170240513A1, “SUBSTITUTED PYRIMIDINES AS INHIBITORS OF HIF PROLYL HYDROXYLASE” (MERCK SHARP & DOHME CORP., priority 2014, published 2017).

Molecular target: T1, human HIF-PHD2 (Homo sapiens, UniProt Q9GZT9)
T1 construct: FLAG-tagged full length PHD2 expressed in and purified from baculovirus-infected Sf9 cells; FLAG; made in house; host or cells: baculovirus-infected Sf9 cells
Experiment: HIF-PHD2 inhibition of HIF-1α peptide hydroxylation (time resolved fluorescence)
Assay type: biochemical
Conditions: FLAG-tagged full length PHD2; 0.2 μM 2-oxoglutarate, 0.5 μM HIF-1α peptide
Description: Select examples of assays that may be used to detect favorable activity are disclosed in the following publications: Oehme, F., et al., Anal. Biochem. 330:74-80 (2004); Hirsilä, M, et al., J. Bio. Chem. 278 (33): 30772-30780 (2005); Hyunju, C., et al., Biochem. Biophys. Res. Comm. 330 275-280 (2005); and Hewitson, K. S., et al., Methods in Enzymology, (Oxygen Biology and Hypoxia); Elsevier Publisher (2007), pg. 25-42 (ISSN: 0076-6879).
To each well of a 384-well plate, 1 μL of test compounds in DMSO (final concentration ranging from 0.3 nM to 10 uM) were added into 20 μl of assay buffer (50 mM Tris pH 7.4/0.01% Tween-20/0.1 mg/ml bovine serum albumin/[…]/1 mM sodium ascorbate/20 μg/ml catalase) containing 0.15 μg/ml FLAG-tagged full length PHD2 expressed in and purified from baculovirus-infected Sf9 cells. After a 5 min preincubation at room temperature, the enzymatic reactions were initiated by the addition of 4 μL of substrates {final concentrations of 0.2 μM 2-oxoglutarate and 0.5 μM HIF-1α peptide biotinyl-DLDLEMLAPYIPMDDDFQL (SEQ ID NO: 1)}. After incubation for 45 minutes at room temperature, the reactions were terminated by the addition of a 25 μL quench/detection mix to a final concentration of 1 mM ortho-phenanthroline, 0.1 mM EDTA, 0.5 nM anti-(His)6 LANCE reagent (Perkin-Elmer Life Sciences), 100 nM AF647-labeled streptavidin (Invitrogen), and 2 μg/ml (His)6-VHL complex {S. Tan Protein Expr. Purif. 21, 224-234 (2001)} and the signals were developed for 30 minutes at room temperature. The ratio of time resolved fluorescence signals at 665 and 620 nm was determined, and percent inhibition was calculated relative to the high control samples (DMSO treated) run in parallel, after background subtraction.

T1 sequence (Q9GZT9 whole entry): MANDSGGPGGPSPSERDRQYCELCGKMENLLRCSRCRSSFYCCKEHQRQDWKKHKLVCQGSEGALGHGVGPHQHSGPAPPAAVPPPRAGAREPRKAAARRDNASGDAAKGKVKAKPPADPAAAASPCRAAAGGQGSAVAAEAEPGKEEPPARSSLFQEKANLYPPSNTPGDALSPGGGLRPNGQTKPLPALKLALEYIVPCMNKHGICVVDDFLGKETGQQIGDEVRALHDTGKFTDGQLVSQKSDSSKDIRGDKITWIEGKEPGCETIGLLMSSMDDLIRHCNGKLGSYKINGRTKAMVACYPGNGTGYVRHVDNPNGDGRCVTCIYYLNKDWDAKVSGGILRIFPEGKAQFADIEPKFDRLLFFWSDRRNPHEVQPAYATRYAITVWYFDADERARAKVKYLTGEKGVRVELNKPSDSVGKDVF

IC50 | SMILES
940 nM | CCOC(=O)C(C)(O)CNC(=O)c1ncc(C(=O)NC(c2ccccc2)c2ccccc2)c(O)n1 (single isomer, unassigned) [Example 26, Ethyl 3-(5-(benzhydrylcarbamoyl)-4-hydroxypyrimidine-2-carboxamido)-2-hydroxy-2-methylpropanoate]
879 nM | CCOC(=O)C(C)(O)CNC(=O)c1ncc(C(=O)NC(c2ccccc2)c2ccccc2)c(O)n1 (single isomer, unassigned) [Example 27, Ethyl 3-(5-(benzhydrylcarbamoyl)-4-hydroxypyrimidine-2-carboxamido)-2-hydroxy-2-methylpropanoate]
14.3 nM | COC(=O)CCNC(=O)c1ncc(C(=O)NC(c2ccccc2)c2ccccc2)c(O)n1 [Ex. 1, Methyl 3-(5-(benzhydrylcarbamoyl)-4-hydroxypyrimidine-2-carboxamido)propanoate]
24.9 nM | O=C(CCNC(=O)c1ncc(C(=O)NC(c2ccccc2)c2ccccc2)c(O)n1)OCCN1CCOCC1 [Ex. 2, 2-morpholinoethyl 3-(5-(benzhydrylcarbamoyl)-4-hydroxypyrimidine-2-carboxamido)propanoate]
35.6 nM | CCOC(=O)C1(CNC(=O)c2ncc(C(=O)NC(c3ccccc3)c3ccccc3)c(O)n2)CC1 [Ex. 3, ethyl 1-((5-(benzhydrylcarbamoyl)-4-hydroxypyrimidine-2-carboxamido)methyl)cyclopropanecarboxylate]
871 nM | CCOC(=O)C(C)(O)CNC(=O)c1ncc(C(=O)NC(c2ccccc2)c2ccccc2)c(O)n1 (stereo not drawn) [Ex. 4, ethyl 3-(5-(benzhydrylcarbamoyl)-4-hydroxypyrimidine-2-carboxamido)-2-hydroxy-2-methylpropanoate]
46.4 nM | CCOC(=O)[C@H](O)CNC(=O)c1ncc(C(=O)NC(c2ccccc2)c2ccccc2)c(O)n1 [Ex. 5, (R)-ethyl 3-(5-(benzhydrylcarbamoyl)-4-hydroxypyrimidine-2-carboxamido)-2-hydroxypropanoate]
2.46 nM | CCOC(=O)OCOC(=O)CCNC(=O)c1ncc(C(=O)NC(c2ccccc2)c2ccccc2)c(O)n1 [Ex. 12, ((ethoxycarbonyl)oxy)methyl 3-(5-(benzhydrylcarbamoyl)-4-hydroxypyrimidine-2-carboxamido)propanoate]
159 nM | CN(C)C(=O)COC(=O)CCNC(=O)c1ncc(C(=O)NC(c2ccccc2)c2ccccc2)c(O)n1 [Ex. 13, 2-(Dimethylamino)-2-oxoethyl 3-(5-(benzhydrylcarbamoyl)-4-hydroxypyrimidine-2-carboxamido)propanoate]
11.2 nM | O=C1CCN(C(=O)c2ncc(C(=O)NC(c3ccccc3)c3ccccc3)c(O)n2)CO1 [Ex. 14, N-Benzhydryl-4-hydroxy-2-(6-oxo-1,3-oxazinane-3-carbonyl)pyrimidine-5-carboxamide]
11.2 nM | O=C(CNC(=O)c1ncc(C(=O)NC(c2ccccc2)c2ccccc2)c(O)n1)Oc1ccc2c(c1)CCC2 [Ex. 15, 2,3-Dihydro-1H-inden-5-yl 2-(5-(benzhydrylcarbamoyl)-4-hydroxypyrimidine-2-carboxamido)acetate]
105 nM | CN(C)C(=O)COC(=O)CNC(=O)c1ncc(C(=O)NC(c2ccccc2)c2ccccc2)c(O)n1 [Ex. 16, 2-(dimethylamino)-2-oxoethyl 2-(5-(benzhydrylcarbamoyl)-4-hydroxypyrimidine-2-carboxamido)acetate]
15.1 nM | O=C1CN(C(=O)c2ncc(C(=O)NC(c3ccccc3)c3ccccc3)c(O)n2)CO1 [Ex. 17, N-Benzhydryl-4-hydroxy-2-(5-oxooxazolidine-3-carbonyl)pyrimidine-5-carboxamide]
32.2 nM | CCOC(=O)OC(C)OC(=O)CNC(=O)c1ncc(C(=O)NC(c2ccccc2)c2ccccc2)c(O)n1 (stereo not drawn) [Ex. 19, 1-((ethoxycarbonyl)oxy)ethyl 2-(5-(benzhydrylcarbamoyl)-4-hydroxypyrimidine-2-carboxamido)acetate]
41 nM | CC(C)OC(=O)OCOC(=O)CNC(=O)c1ncc(C(=O)NC(c2ccccc2)c2ccccc2)c(O)n1 [Ex. 20, ((Isopropoxycarbonyl)oxy)methyl 2-(5-(benzhydrylcarbamoyl)-4-hydroxypyrimidine-2-carboxamido)acetate]
182 nM | O=C(NC[C@@H](O)C(=O)OC1CCCCC1O)c1ncc(C(=O)NC(c2ccccc2)c2ccccc2)c(O)n1 (stereo partly drawn) [Ex. 25, (2R)-2-Hydroxycyclohexyl 3-(5-(benzhydrylcarbamoyl)-4-hydroxypyrimidine-2-carboxamido)-2-hydroxypropanoate]
171 nM | CC(C)OC(=O)COC(=O)[C@H]1C[C@H](NC(=O)c2ncc(C(=O)NC(c3ccccc3)c3ccccc3)c(O)n2)C1 [Ex. 29, (1R,3R)-2-isopropoxy-2-oxoethyl 3-(5-(benzhydrylcarbamoyl)-4-hydroxypyrimidine-2-carboxamido)cyclobutanecarboxylate]
15.9 nM | CC(C)OC(=O)CCNC(=O)c1ncc(C(=O)NC(c2ccccc2)c2ccccc2)c(O)n1 [Example 6, Isopropyl 3-(5-(benzhydrylcarbamoyl)-4-hydroxypyrimidine-2-carboxamido)propanoate]

The next lines start with the compound.

SMILES | IC50
CC(C)OC(=O)COC(=O)C(C)CNC(=O)c1ncc(C(=O)NC(c2ccccc2)c2ccccc2)c(O)n1 (single isomer, unassigned) [Ex. 30, 2-Isopropoxy-2-oxoethyl 3-(5-(benzhydrylcarbamoyl)-4-hydroxypyrimidine-2-carboxamido)-2-methylpropanoate] | 179 nM
CC(=O)OCOC(=O)CCNC(=O)c1ncc(C(=O)NC(c2ccccc2)c2ccccc2)c(O)n1 [Ex. 7, Acetoxymethyl 3-(5-(benzhydrylcarbamoyl)-4-hydroxypyrimidine-2-carboxamido)propanoate] | 3.11 nM
CC(C)OC(=O)OCOC(=O)CCNC(=O)c1ncc(C(=O)NC(c2ccccc2)c2ccccc2)c(O)n1 [Ex. 8, ((isopropoxycarbonyl)oxy)methyl 3-(5-(benzhydrylcarbamoyl)-4-hydroxypyrimidine-2-carboxamido)propanoate] | 2.81 nM
CCOC(=O)OC(C)OC(=O)CCNC(=O)c1ncc(C(=O)NC(c2ccccc2)c2ccccc2)c(O)n1 (stereo not drawn) [Ex. 9, 1-((ethoxycarbonyl)oxy)ethyl 3-(5-(benzhydrylcarbamoyl)-4-hydroxypyrimidine-2-carboxamido)propanoate] | 6.67 nM
CC(C)OC(=O)OC(C)OC(=O)CCNC(=O)c1ncc(C(=O)NC(c2ccccc2)c2ccccc2)c(O)n1 (stereo not drawn) [Ex. 10, 1-((isopropoxycarbonyl)oxy)ethyl 3-(5-(benzhydrylcarbamoyl)-4-hydroxypyrimidine-2-carboxamido)propanoate] | 37.2 nM
CC(OC(=O)CCNC(=O)c1ncc(C(=O)NC(c2ccccc2)c2ccccc2)c(O)n1)OC(=O)OC1CCCCC1 (stereo not drawn) [Ex. 11, 1-(((cyclohexyloxy)carbonyl)oxy)ethyl 3-(5-(benzhydrylcarbamoyl)-4-hydroxypyrimidine-2-carboxamido)propanoate] | 42.1 nM
CC(C)OC(=O)OC(C)OC(=O)CNC(=O)c1ncc(C(=O)NC(c2ccccc2)c2ccccc2)c(O)n1 (stereo not drawn) [Ex. 18, 1-((isopropoxycarbonyl)oxy)ethyl 2-(5-(benzhydrylcarbamoyl)-4-hydroxypyrimidine-2-carboxamido)acetate] | 43.9 nM
CC(C)C(=O)OCOC(=O)CNC(=O)c1ncc(C(=O)NC(c2ccccc2)c2ccccc2)c(O)n1 [Ex. 21, (2-(5-(benzhydrylcarbamoyl)-4-hydroxypyrimidine-2-carboxamido)acetoxy)methyl isobutyrate] | 35 nM
CCOC(=O)OCOC(=O)CNC(=O)c1ncc(C(=O)NC(c2ccccc2)c2ccccc2)c(O)n1 [Ex. 22] | 14.7 nM
CC(OC(=O)[C@H](O)CNC(=O)c1ncc(C(=O)NC(c2ccccc2)c2ccccc2)c(O)n1)C(=O)OCc1ccccc1 (stereo partly drawn) [Ex. 23, (2R)-1-(Benzyloxy)-1-oxopropan-2-yl 3-(5-(benzhydrylcarbamoyl)-4-hydroxypyrimidine-2-carboxamido)-2-hydroxypropanoate] | 11.2 nM
CCOC(=O)C(OC(=O)[C@H](O)CNC(=O)c1ncc(C(=O)NC(c2ccccc2)c2ccccc2)c(O)n1)c1ccccc1 (stereo partly drawn) [Ex. 24, (2R)-2-ethoxy-2-oxo-1-phenylethyl 3-(5-(benzhydrylcarbamoyl)-4-hydroxypyrimidine-2-carboxamido)-2-hydroxypropanoate] | 326 nM
O=C(CCNC(=O)c1ncc(C(=O)NC(c2ccccc2)c2ccccc2)c(O)n1)OCc1ccccc1 [Example 28] | 24.3 nM
